Drawing on patent US8927500B2, “Peptidomimetic macrocycles” (Aileron Therapeutics, Inc., priority 2012, dated 2015), this text covers IC50 and Ki for seven molecules.

Where a SMILES comes first, the peptide text is derived from it. Bridges are numbered along the chain shown (N, C = ends). [ ]: non-standard residue; d: D form. Trp(6-Cl) = N[C@@H](Cc1c[nH]c2cc(Cl)ccc12)C(=O)O; R8 = C=CCCCCCC[C@@](C)(N)C(=O)O; Cba = N[C@@H](CC1CCC1)C(=O)O; S5 = C=CCCC[C@](C)(N)C(=O)O; Nle = CCCC[C@H](N)C(=O)O

One test has as its target MDM2 (Homo sapiens, UniProt Q00987). The test is described as follows: Competitive fluorescence polarization assay for MDM2. The format is binding. The settings on record: competitive FP assay, MDM2; for IC50: read-out: IC50 (MDM2); for Ki: read-out: Ki (MDM2). In general terms: Polarisation of emitted light reports the rotation of a fluorescent probe.
The target in the next test is T1, MDMX (Homo sapiens, UniProt O15151).
T1 sequence (O15151 1-125): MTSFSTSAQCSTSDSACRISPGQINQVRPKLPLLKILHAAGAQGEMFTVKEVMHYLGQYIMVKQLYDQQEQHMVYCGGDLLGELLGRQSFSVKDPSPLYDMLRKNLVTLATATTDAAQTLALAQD
The experiment in a line: Competitive fluorescence polarization assay for MDMX. The format is binding. The settings on record: competitive FP assay; for IC50: read-out: IC50 (MDMX); for Ki: read-out: Ki (MDMX).

MDM2, sequence (Q00987 1-125): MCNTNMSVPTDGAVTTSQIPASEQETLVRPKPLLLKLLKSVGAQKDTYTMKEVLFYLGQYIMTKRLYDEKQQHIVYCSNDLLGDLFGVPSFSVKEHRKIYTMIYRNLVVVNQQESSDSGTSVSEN

Turning to `CCCC[C@H](NC(=O)[C@H](C)NC(=O)[C@H](C)NC(=O)[C@]1(C)CCCC=CCCCCCC[C@@](C)(NC(=O)[C@H](Cc2ccccc2)NC(=O)[C@@H](NC(=O)[C@H](CC(C)C)NC(C)=O)[C@@H](C)O)C(=O)N[C@@H](C)C(=O)N[C@@H](Cc2ccc(O)cc2)C(=O)N[C@@H](Cc2c[nH]c3ccccc23)C(=O)N[C@@H](C)C(=O)N[C@@H](CCC(N)=O)C(=O)N[C@@H](CC(C)C)C(=O)N1)C(=O)N[C@@H](C)C(=O)NCCC` (single isomer, unassigned) [compound 423], at MDM2, the IC50 is 0.01 to 0.1 µM and the Ki is below 0.01 µM. Further, on MDMX, the IC50 was 0.01 to 0.1 µM and the Ki fell in the range of 0.01 to 0.1 µM.
As to `CC(=O)N[C@@H](CC(C)C)C(=O)N[C@H](C(=O)N[C@@H](Cc1ccccc1)C(=O)N[C@]1(C)CCCCCCC=CCCC[C@@](C)(C(=O)N[C@@H](CO)C(=O)N[C@@H](C)C(=O)N[C@@H](C)C(N)=O)NC(=O)[C@H](CC2CCC2)NC(=O)[C@H](CCC(N)=O)NC(=O)[C@H](C)NC(=O)[C@H](Cc2c[nH]c3ccccc23)NC(=O)[C@H](Cc2ccc(O)cc2)NC(=O)[C@H](Cc2c[nH]cn2)NC1=O)[C@@H](C)O` (single isomer, unassigned) [compound 712], the Ki on MDM2 and at MDMX was below 0.01 µM each time.
As for `CC(=O)N[C@@H](CC(=O)O)C(=O)N[C@@H](CC(C)C)C(=O)N[C@H](C(=O)N[C@@H](Cc1ccccc1)C(=O)N[C@]1(C)CCCCCCC=CCCC[C@@](C)(C(=O)N[C@@H](CCCNC(=N)N)C(=O)N[C@@H](CCCNC(=N)N)C(=O)N[C@@H](CC(C)C)C(=O)N[C@H](C)C(N)=O)NC(=O)[C@H](CC(C)C)NC(=O)[C@H](CCC(N)=O)NC(=O)[C@H](Cc2c[nH]cn2)NC(=O)[C@H](Cc2c[nH]c3ccccc23)NC(=O)[C@H](Cc2c[nH]cn2)NC(=O)[C@H](Cc2c[nH]cn2)NC1=O)[C@@H](C)O` [compound 52] (Ac-DLTF[R8]HHWHQL[S5]RRL[dA]-NH2; staple 5-12), the IC50 at MDM2 and at MDMX was 0.01 to 0.1 µM throughout. For the same molecule, the Ki on MDM2 and on MDMX was below 0.01 µM each time.
In the case of `CC(=O)N[C@@H](CC(C)C)C(=O)N[C@H](C(=O)N[C@@H](Cc1ccccc1)C(=O)N[C@]1(C)CCCCCCC=CCCC[C@@](C)(C(=O)N[C@@H](CO)C(=O)N[C@@H](C)C(=O)N[C@@H](Cc2ccccc2)C(N)=O)NC(=O)[C@H](CC2CCC2)NC(=O)[C@H](CCC(N)=O)NC(=O)[C@H](C)NC(=O)[C@H](Cc2c[nH]c3cc(Cl)ccc23)NC(=O)[C@H](Cc2ccc(O)cc2)NC(=O)[C@H](CCC(=O)O)NC1=O)[C@@H](C)O` [compound 261] (Ac-LTF[R8]EY[Trp(6-Cl)]AQ[Cba][S5]SAF-NH2; staple 4-11), on MDM2, the IC50 lay within 0.01 to 0.1 µM and the Ki was below 0.01 µM. Also, at MDMX, the IC50 is 0.1 to 1 µM and the Ki fell in the range of 0.01 to 0.1 µM.
For the molecule `CC(=O)N[C@@H](Cc1ccccc1)C(=O)N[C@]1(C)CCCCCCC=CCCC[C@@](C)(C(=O)N[C@@H](C)C(=O)N[C@@H](C)C(=O)N[C@@H](C)C(=O)N[C@@H](C)C(=O)N[C@@H](C)C(=O)N[C@@H](C)C(=O)N[C@H](C)C(N)=O)NC(=O)[C@H](CC(C)C)NC(=O)[C@H](C)NC(=O)[C@H](CCC(=O)O)NC(=O)[C@H](Cc2c[nH]c3cc(Cl)ccc23)NC(=O)[C@H](Cc2ccc(O)cc2)NC(=O)[C@H](C)NC1=O` [compound 339] (Ac-F[R8]AY[Trp(6-Cl)]EAL[S5]AAAAAA[dA]-NH2; staple 2-9), at MDM2, the IC50 is below 0.01 µM and the Ki is below 0.01 µM. At MDMX, the IC50 lay within 0.1 to 1 µM and the Ki lay in the range of 0.01 to 0.1 µM.
Turning to `CC[C@H](C)[C@H](NC(=O)[C@H](C)NC(=O)[C@H](C)NC(=O)[C@]1(C)CCCC=CCCCCCC[C@@](C)(NC(=O)[C@H](Cc2ccccc2)NC(=O)[C@@H](NC(=O)[C@H](CC(C)C)NC(C)=O)[C@@H](C)O)C(=O)N[C@@H](C)C(=O)N[C@@H](Cc2ccc(O)cc2)C(=O)N[C@@H](Cc2c[nH]c3ccccc23)C(=O)N[C@@H](C)C(=O)N[C@@H](CCC(N)=O)C(=O)N[C@@H](CC2CCC2)C(=O)N1)C(=O)N[C@H](C)C(N)=O` [compound 264] (Ac-LTF[R8]AYWAQ[Cba][S5]AAI[dA]-NH2; staple 4-11), on MDM2, the IC50 was in the range of 0.01 to 0.1 µM and the Ki is below 0.01 µM. Also, on MDMX, the IC50 lay within 0.01 to 0.1 µM and the Ki lay in the range of 0.01 to 0.1 µM.
For the molecule `CCCC[C@H](NC(=O)[C@H](C)NC(=O)[C@H](C)NC(=O)[C@]1(C)CCCC=CCCCCCC[C@@](C)(NC(=O)[C@H](Cc2ccccc2)NC(=O)[C@@H](NC(=O)[C@H](CC(C)C)NC(=O)[C@H](C)NC(=O)[C@H](C)NC(C)=O)[C@@H](C)O)C(=O)N[C@@H](CCC(=O)O)C(=O)N[C@@H](Cc2ccc(O)cc2)C(=O)N[C@@H](Cc2c[nH]c3ccccc23)C(=O)N[C@@H](C)C(=O)N[C@@H](CCC(N)=O)C(=O)N[C@@H](CC(C)C)C(=O)N1)C(=O)N[C@@H](C)C(N)=O` [compound 375] (Ac-AALTF[R8]EYWAQL[S5]AA[Nle]A-NH2; staple 6-13), on MDM2, the IC50 was in the range of 0.01 to 0.1 µM and the Ki was below 0.01 µM. In addition, at MDMX, the IC50 fell in the range of 0.01 to 0.1 µM and the Ki is below 0.01 µM.

In general, IC50 refers to the concentration at which inhibition is half-maximal. As usually defined, the Ki is a measure of affinity in units of concentration, obtained from inhibition or displacement.
